Experimental data: US5616123A, “Delivery of solid drug compositions” (Delab, priority 1995, dated 1997)

Columns and labels:
[1] = cited from earlier work; for solubility: in words
[2] = plasma levels of BN 50730 after subcutaneous injection (FIGS. 13, 14); type: in vivo, rabbits
Experimental: These cylinders were injected subcutaneously into rabbits at a dosage of 2.0 mg/kg for a comparison study with BN 50730 mixed with propylene glycol. […] This 10 ng/ml is a sufficient concentration for a pharmacological effect.

Row | Compound | solubility [1] | sufficient concentration for a pharmacological effect ([2]; plasma concentration) | effect in plasma (onset) ([2]; solid formulation, subcutaneous, rabbits, 2.0 mg/kg) | water solubility [1]
1 | COc1ccc(NC(=S)N2CCc3c(sc4c3C(c3ccccc3Cl)=NCc3nnc(C)n3-4)C2)cc1 [BN 50730, 4,7,8,10-tetrahydro-1-methyl-6-(2-chlorphenyl)-9-(4-methoxyphenyl-thiocarbamoyl)-pyrrido-[4',3'-4,5]thieno[3,2-f]-1,2,4-triazolo[4,3-a]1,4-diazepine] | insoluble | 10 ng/ml | immediate effect in plasma | –
2 | bovine pancreas insulin [BPI] | – | – | – | water insoluble
3 | CCCCNc1ccc(C(=O)OCCN(C)C)cc1 [tetracaine] | soluble | – | – | –
4 | Recombinant human insulin [RHI] | – | – | – | water soluble
